# How the values were obtained:
# [1] = (§1) Inhibition of Saccharomyces sp. alpha-glucosidase using p-nitrophenyl a-D-glucopyranoside as substrate by spectrophotometric analysis
# Saccharomyces sp. [2] = assay: as §1
# Saccharomyces sp. [3] = assay: Inhibition of Saccharomyces sp. alpha-glucosidase using p-nitrophenyl a-D-glucopyranoside as substrate at 100 ug/ml by spectrophotometric analysis
Compound,IC50 ([1]; read-out: IC50) [µM],inhibition (Saccharomyces sp. [2]),IC50 [1] [µg/mL],Imax (Saccharomyces sp. [3]) [%]
OC[C@H]1NC[C@H](O)[C@@H](O)[C@@H]1O [DUVOGLUSTAT],422,–,–,–
CC1=C(C)C(=O)O[C@@H]([C@](C)(O)C2=CC[C@@]3(O)[C@@H]4CC=C5CC=CC(=O)[C@]5(C)[C@H]4CC[C@]23C)C1,–,Dose-dependent effect,38.2,96.1
CC1=C(C)C(=O)O[C@@H]([C@](C)(O)[C@H]2CC[C@@H]3[C@]2(C)CC[C@H]2[C@@]3(O)[C@H]3O[C@H]3[C@@]3(O)CC=CC(=O)[C@]23C)C1,–,Dose-dependent effect,40.65,94.3
CC1=C(C)C(=O)O[C@@H]([C@](C)(O)[C@H]2CC[C@H]3[C@@H]4CC=C5CC=CC(=O)[C@]5(C)[C@H]4CC[C@]23C)C1,–,Dose-dependent effect,85.8,69.7
